Results as given in PubChem BioAssay (NCI).
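These data come from cells grown in 96-well plates and exposed to compound for 48 hours at five concentrations. Definition used: TGI = concentration required for complete inhibition of growth.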 Where a SMILES comes first, the peptide text is derived from it. [ ]: non-standard residue; d: D form. The star is where a group is joined. Ac5c = NC1(C(=O)O)CCCC1; Cbz = O=C(OCc1ccccc1)*; Boc = CC(C)(C)OC(=O)*; tBu = CC(C)(C)*

How the values were obtained:
Assay in all cases: NCI anticancer screen, dose series, 48 h
[1] = system: NCI-H23 lung
[2] = system: HOP-92 NSCLC
[3] = system: UACC-257 melanoma
[4] = system: NCI-H226 lung

Measured: TGI

CC(OC(C)(C)C)C(NC(=O)C(CCCCNC(=O)OC(C)(C)C)NC(=O)C(Cc1c[nH]c2ccccc12)NC(=O)C(N)Cc1ccccc1)C(=O)NC(Cc1ccccc1)C(=O)NC1(C(=O)O)CCCC1 (stereo not drawn) (H-FWK(Boc)T(tBu)F[Ac5c]-OH; configuration not given here)
> 100 µM: [1] | [2] | [3] | [4]

COC(=O)C1(NC(=O)C(Cc2ccccc2)NC(=O)C(NC(=O)C(CCCCNC(=O)OC(C)(C)C)NC(=O)C(Cc2c[nH]c3ccccc23)NC(=O)C(Cc2ccccc2)NC(=O)OCc2ccccc2)C(C)OC(C)(C)C)CCCC1 (stereo not drawn) (Cbz-FWK(Boc)T(tBu)F[Ac5c]-OMe; configuration not given here)
> 100 µM: [1] | [2] | [3] | [4]
